# Results from PubChem BioAssay (NCI).
#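 Test compounds were applied to cells in 96-well plates for 48 hours at 5 doses. GI50 marks 50% less growth. TGI marks complete inhibition of growth.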
# Tests used:
# Assay in all cases: NCI tumour cell line growth inhibition, 48 h
# [1] = system: OVCAR-3 ovarian
# [2] = system: U251 CNS
# [3] = system: KM12 colon
# [4] = system: RXF 393 renal
# [5] = system: NCI-H522 lung
# [6] = system: SF-295 CNS
# [7] = system: CAKI-1 renal
# [8] = system: HL-60(TB) leukemia
# [9] = system: NCI-H226 lung
# [10] = system: EKVX NSCLC
# [11] = system: COLO 205 colon
# [12] = system: 786-0 renal
# [13] = system: HOP-62 NSCLC
# [14] = system: UACC-62 melanoma
# [15] = system: A549 NSCLC
# [16] = system: SF-268 CNS
# [17] = system: SK-OV-3 ovarian
# [18] = system: CCRF-CEM leukemia
# [19] = system: HT29 colon
# [20] = system: DU-145 prostate
# [21] = system: UACC-257 melanoma
# [22] = system: NCI-H23 lung
# [23] = system: HCT-116 colon
# [24] = system: SK-MEL-5 melanoma
# [25] = system: NCI/ADR-RES ovarian
# [26] = system: MDA-MB-435
# [27] = system: SNB-19 CNS
# [28] = system: BT-549 breast
# [29] = system: OVCAR-4 ovarian
# [30] = system: SK-MEL-28 melanoma
# [31] = system: K-562 leukemia
# [32] = system: PC-3 prostate
# [33] = system: NCI-H460 lung
# [34] = system: UO-31 renal
# [35] = system: SN12C renal
# [36] = system: T-47D breast
# [37] = system: OVCAR-8 ovarian
# [38] = system: M14 melanoma
# [39] = system: OVCAR-5 ovarian
# [40] = system: SNB-75 CNS
# [41] = system: ACHN renal
# [42] = system: RPMI-8226 leukemia
# [43] = system: HCC-2998 colon
# [44] = system: HCT-15 colon
# [45] = system: TK-10 renal
# [46] = system: SK-MEL-2 melanoma
# [47] = system: MDA-MB-231 breast
# [48] = system: SW-620 colon
# [49] = system: LOX IMVI melanoma
# [50] = system: SF-539 CNS
# [51] = system: A498 renal
# [52] = system: MOLT-4 leukemia
smiles,measurement,setting,value
O=c1nc2n(-c3ccc(Cl)cc3)c3ccc([N+](=O)[O-])cc3cc-2c(=O)[nH]1,GI50,[1],5.57 µM
same,TGI,[1],21.6 µM
same,GI50,[2],8.15 µM
same,TGI,[2],88.7 µM
same,GI50,[3],5.06 µM
same,TGI,[3],20 µM
same,GI50,[4],18.8 µM
same,TGI,[4],> 100 µM
same,GI50,[5],22.2 µM
same,TGI,[5],57.2 µM
same,GI50,[6],19.8 µM
same,TGI,[6],47.1 µM
same,GI50,[7],21.5 µM
same,TGI,[7],60.1 µM
same,GI50,[8],9.55 µM
same,TGI,[8],> 100 µM
same,GI50,[9],21.1 µM
same,TGI,[9],60.5 µM
same,GI50,[10],37.2 µM
same,TGI,[10],82.5 µM
same,GI50,[11],13.2 µM
same,TGI,[11],31.8 µM
same,GI50,[12],17.9 µM
same,TGI,[12],37.1 µM
same,GI50,[13],6.01 µM
same,TGI,[13],22.8 µM
same,GI50,[14],11.8 µM
same,TGI,[14],28.6 µM
same,GI50,[15],30.4 µM
same,TGI,[15],> 100 µM
same,GI50,[16],16.5 µM
same,TGI,[16],64.5 µM
same,GI50,[17],41.7 µM
same,TGI,[17],> 100 µM
same,GI50,[18],9.37 µM
same,TGI,[18],> 100 µM
same,GI50,[19],20.2 µM
same,TGI,[19],43.1 µM
same,GI50,[20],29.1 µM
same,TGI,[20],79.5 µM
same,GI50,[21],23.4 µM
same,TGI,[21],62.5 µM
same,GI50,[22],17.7 µM
same,TGI,[22],34 µM
same,GI50,[23],16.1 µM
same,TGI,[23],33.2 µM
same,GI50,[24],18.6 µM
same,TGI,[24],41.6 µM
same,GI50,[25],49.6 µM
same,TGI,[25],> 100 µM
same,GI50,[26],15.8 µM
same,TGI,[26],37.7 µM
same,GI50,[27],17.8 µM
same,TGI,[27],83.3 µM
same,GI50,[28],13.6 µM
same,TGI,[28],46.2 µM
same,GI50,[29],71.5 µM
same,TGI,[29],> 100 µM
same,GI50,[30],24.9 µM
same,TGI,[30],61.6 µM
same,GI50,[31],32.6 µM
same,TGI,[31],> 100 µM
same,GI50,[32],23.5 µM
same,TGI,[32],78.5 µM
same,GI50,[33],23.1 µM
same,TGI,[33],> 100 µM
same,GI50,[34],20 µM
same,TGI,[34],53.6 µM
same,GI50,[35],14.5 µM
same,TGI,[35],44.5 µM
same,GI50,[36],18.3 µM
same,TGI,[36],43.1 µM
same,GI50,[37],33.2 µM
same,TGI,[37],> 100 µM
same,GI50,[38],20.2 µM
same,TGI,[38],37.7 µM
same,GI50,[39],28.8 µM
same,TGI,[39],73.8 µM
same,GI50,[40],> 100 µM
same,TGI,[40],> 100 µM
same,GI50,[41],57.4 µM
same,TGI,[41],> 100 µM
same,GI50,[42],12.3 µM
same,TGI,[42],47.7 µM
same,GI50,[43],22.3 µM
same,TGI,[43],54.3 µM
same,GI50,[44],8.84 µM
same,TGI,[44],> 100 µM
same,GI50,[45],25.7 µM
same,TGI,[45],62.7 µM
same,GI50,[46],55.1 µM
same,TGI,[46],> 100 µM
same,GI50,[47],17.3 µM
same,TGI,[47],44.5 µM
same,GI50,[48],6.11 µM
same,TGI,[48],> 100 µM
same,GI50,[49],4.87 µM
same,TGI,[49],21.7 µM
same,GI50,[50],22.5 µM
same,TGI,[50],53.9 µM
same,GI50,[51],33.2 µM
same,TGI,[51],> 100 µM
same,GI50,[52],13.4 µM
same,TGI,[52],> 100 µM
